Data reported in patent US20090093069A1, “Topiramate Immunoassays” (ARK Diagnostics, Inc., priority 2007, published 2009).

What follows are compounds tested on rabbit polyclonal antibody #11341 (assay: Coadministered drug interference study in the homogeneous enzyme immunoassay (HITACHI 917)). Details: 5.0 μg/mL drug added to human serum containing 20.0 μg/mL topiramate.
Format: binding
Description: The antibody was added into the antibody diluent to prepare the antibody reagent. The antibody reagent consists of antibody as prepared above, buffer, stabilizers, preservatives, and the substrates for the enzyme conjugate NAD and glucose 6 phosphate. […] The enzyme conjugate reagent consists of the conjugate, buffer, stabilizers and preservatives.
(§1) The ARK Assay for topiramate is conducted using a liquid, ready-to-use, two-reagent kit. […] Topiramate containing sample is incubated with antibody reagent followed by the addition of the enzyme conjugate reagent. The enzyme conjugate activity decreases upon binding to the antibody. The enzyme conjugate, which is not bound to the antibody, catalyzes the oxidation of glucose 6-phosphate (G6P). The oxidation of G6P is coupled with the reduction of NAD^+ to NADH, which can be measured at 340 nm. The change in the absorbance at 340 nm can be measured spectrophotometrically. The topiramate concentration in a specimen can be measured in terms of G6PDH activity. The increase in the rate at 340 nm is due to the formation of NADH and is proportional to the enzyme conjugate activity. […] The assay rate increases with increasing the concentration of drug in the sample.
A high concentration of each coadministered drug was spiked into normal human serum with containing topiramate 20 μg/mL and assayed. Each sample was assayed in duplicate. […] The percentage concentration above 20.0 μg/mL of topiramate was calculated for each coadministered drug tested.

Question: For NC(N)=Nc1nc(CSCCC(N)=NS(N)(=O)=O)cs1 [Famotidine], which “% Interference [(20.0 μg/mL Topiramate) − (Result)] ÷ (drug conc.) × 100” value (from here on “% Interference”) is on record?
Answer: The value was −0.2%.

Same assay, conditions: 10.0 μg/mL drug added to human serum containing 20.0 μg/mL topiramate

Question: Which “% Interference” value does the source give for NS(=O)(=O)c1cc(C(=O)O)c(NCc2ccco2)cc1Cl [Furosemide] here?
Answer: The value was 0.10%.

Same assay, conditions: 50.0 μg/mL drug added to human serum containing 20.0 μg/mL topiramate

Question: Which “% Interference” value does the source give for CC(=O)Nc1nnc(S(N)(=O)=O)s1 [Acetazolamide] here?
Answer: The value was 0.56%.

Question: With CC(=O)Nc1ccc(O)cc1 [Acetominophen] as the compound, how does the “% Interference” value read?
Answer: The value was −0.38%.

Question: How did the “% Interference” value turn out when CC(C)NCC(O)COc1ccc(CC(N)=O)cc1 (stereo not drawn) [Atenolol] was run?
Answer: Its value is −0.40%.

Question: With O=C1CN=C(c2ccccc2Cl)c2cc([N+](=O)[O-])ccc2N1 [Clonazepam] as the compound, how does the “% Interference” value read?
Answer: Its value is 0.70%.

Question: Which “% Interference” value does the source give for CN1C(=O)CN=C(c2ccccc2)c2cc(Cl)ccc21 [Diazepam] here?
Answer: The value was 0.64%.

Question: CC(C)Cc1ccc(C(C)C(=O)O)cc1 (stereo not drawn) [Ibuprofen] was tested. Which “% Interference” value did it give?
Answer: The value was 2.30%.

Question: For O=C1NC(=O)C(c2ccccc2)(c2ccccc2)N1 [Phenytoin], which “% Interference” value is on record?
Answer: The value was 0.32%.

Same assay, conditions: 100.0 μg/mL drug added to human serum containing 20.0 μg/mL topiramate

Question: CC(=O)Oc1ccccc1C(=O)O [Acetylsalicyclic Acid] was tested. Which “% Interference” value did it give?
Answer: Its value is 0.25%.

Question: How did the “% Interference” value turn out when Cn1c(=O)c2c(ncn2C)n(C)c1=O [Caffeine] was run?
Answer: Its value is 0.35%.

Question: Which “% Interference” value does the source give for NC(=O)N1c2ccccc2C=Cc2ccccc21 [Carbamazepine] here?
Answer: Its value is −0.43%.

Question: NS(=O)(=O)c1cc(C2(O)NC(=O)c3ccccc32)ccc1Cl (stereo not drawn) [Chlorthalidone] was tested. Which “% Interference” value did it give?
Answer: The value was 0.16%.

Question: Which “% Interference” value does the source give for NCC1(CC(=O)O)CCCCC1 [Gabapentin] here?
Answer: The value was −0.49%.

Question: How did the “% Interference” value turn out when Nc1nnc(-c2cccc(Cl)c2Cl)c(N)n1 [Lamotrogine] was run?
Answer: Its value is −1.02%.

Question: For COCCc1ccc(OCC(O)CNC(C)C)cc1 (stereo not drawn) [Metoprolol], which “% Interference” value is on record?
Answer: Its value is 0.35%.

Question: For CCC1(c2ccccc2)C(=O)NC(=O)NC1=O [Phenobarbitol], which “% Interference” value is on record?
Answer: Its value is 1.08%.

Question: For CCC1(c2ccccc2)C(=O)NCNC1=O [Primidone], which “% Interference” value is on record?
Answer: Its value is −1.83%.

Question: COc1ccc(CCN(C)CCCC(C#N)(c2ccc(OC)c(OC)c2)C(C)C)cc1OC (stereo not drawn) [Verapamil] was tested. Which “% Interference” value did it give?
Answer: Its value is 1.07%.

Same assay, conditions: 200.0 μg/mL drug added to human serum containing 20.0 μg/mL topiramate

Question: Which “% Interference” value does the source give for CC[C@@H](C(N)=O)N1CCCC1=O [Levetiracetam] here?
Answer: The value was −0.45%.

Question: With CCCC(CCC)C(=O)O [Valproic Acid] as the compound, how does the “% Interference” value read?
Answer: Its value is 0.50%.

Question: Which “% Interference” value does the source give for NS(=O)(=O)Cc1noc2ccccc12 [Zonisamide] here?
Answer: The value was 0.08%.

Same assay, conditions: 500.0 μg/mL drug added to human serum containing 20.0 μg/mL topiramate

Question: Which “% Interference” value does the source give for CCC1(C)CC(=O)NC1=O (stereo not drawn) [Ethosuxamide] here?
Answer: Its value is −0.09%.

Question: With NC(=O)OCC(COC(N)=O)c1ccccc1 [Felbamate] as the compound, how does the “% Interference” value read?
Answer: The value was 0.20%.

Same assay, conditions: 750.0 μg/mL drug added to human serum containing 20.0 μg/mL topiramate

Question: For O=C(O)c1ccccc1O [Salicylic Acid], which “% Interference” value is on record?
Answer: The value was −5.73%.

Question: With CCCCNC(=O)NS(=O)(=O)c1ccc(C)cc1 [Tolbutamide] as the compound, how does the “% Interference” value read?
Answer: Its value is −0.08%.

Same assay, conditions: 2000.0 μg/mL drug added to human serum containing 20.0 μg/mL topiramate

Question: With Nc1ccc(S(N)(=O)=O)cc1 [Sulfanilamide] as the compound, how does the “% Interference” value read?
Answer: Its value is −0.16%.

These compounds were tested on antibody from rabbit #11341 (assay: Crossreactivity to topiramate metabolites in the homogeneous enzyme immunoassay (HITACHI 917)). Details: metabolite 50.0 μg/mL, in the presence of 20 μg/mL topiramate.
Format: binding
Description: % Crossreactivity=100×(“apparent concentration of measurand”/“concentration of crossreactant”)
as §1
The apparent topiramate concentration for the metabolite is the difference in concentration with metabolite minus the concentration without metabolite.

Question: CC1(C)O[C@H]2[C@@H]3O[C@](C)(CO)O[C@@H]3CO[C@@]2(COS(N)(=O)=O)O1 [9-OH-Topiramate, 9-hydroxytopiramate] was tested. Which “% Cross Reactivity” value did it give?
Answer: The value was 3.18%.

Question: With CC1(C)O[C@H]2[C@@H]3O[C@@](C)(CO)O[C@@H]3CO[C@@]2(COS(N)(=O)=O)O1 [10-OH-Topiramate, 10-hydroxytopiramate] as the compound, how does the “% Cross Reactivity” value read?
Answer: The value was 3.20%.

The compounds below were run on antibodies raised with immunogens (10-KLH, 12-KLH, 12-L-KLH, 19-KLH, 22-KLH and 25-KLH) (assay: Enzyme-based assay format, reactivity of antibodies raised with the immunogens). Details: not given.
Format: binding
From the text: All the prepared haptens have utility for KLH and G6PDH bio-conjugation. immunogens (10-KLH, 12-KLH, 12-L-KLH, 19-KLH, 22-KLH and 25-KLH) were used to raise antibodies.

Question: How did the “reactivity of the antibodies” value turn out when CC1(C)O[C@@H]2[C@@H](CO[C@@]3(CO)OC(C)(C)O[C@@H]23)O1 [diacetonefructose] was run?
Answer: Its value is “good reactivity”.
